The source of these data is ChEMBL document CHEMBL2434826, “Multifunctional tacrine-flavonoid hybrids with cholinergic, β-amyloid-reducing, and metal chelating properties for the treatment of Alzheimer's disease” (Eur J Med Chem, 2013).

The source made the active and inactive calls. The calls are words filed in the database; no cut-off is given here.

The subject of data set [1] is Radical scavenging activity. Kind of data set: Antioxidant activity assessed as DPPH radical scavenging activity at 2 mM relative to control. Format: functional. Background: DPPH is a stable violet radical that fades when it is reduced.
The target in data set [2] is Cholinesterase (Equus caballus) (UniProt P81908). Kind of data set: Competitive inhibition of equine serum BuChE using […] as substrate at 22.5 to 90 nM by Lineweaver-Burk plot analysis.
Chain of Cholinesterase (Equus caballus) (P81908 whole entry): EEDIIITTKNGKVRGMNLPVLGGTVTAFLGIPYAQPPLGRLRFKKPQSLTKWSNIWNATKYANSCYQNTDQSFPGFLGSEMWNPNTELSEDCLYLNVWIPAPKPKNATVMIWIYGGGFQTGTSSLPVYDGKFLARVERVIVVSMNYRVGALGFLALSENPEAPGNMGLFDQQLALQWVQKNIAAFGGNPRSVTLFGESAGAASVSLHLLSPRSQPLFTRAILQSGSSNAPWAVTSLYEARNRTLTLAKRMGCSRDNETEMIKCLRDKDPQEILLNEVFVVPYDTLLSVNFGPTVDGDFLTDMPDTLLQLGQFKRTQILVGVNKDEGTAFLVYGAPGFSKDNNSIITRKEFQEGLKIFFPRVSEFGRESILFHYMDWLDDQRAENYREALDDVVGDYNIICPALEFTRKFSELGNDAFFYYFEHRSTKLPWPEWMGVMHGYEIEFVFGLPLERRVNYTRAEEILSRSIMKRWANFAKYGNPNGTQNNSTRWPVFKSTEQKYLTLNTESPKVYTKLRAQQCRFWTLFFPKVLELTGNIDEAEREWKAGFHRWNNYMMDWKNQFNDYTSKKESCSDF
For data set [3], the target named is T1, Amyloid-beta precursor protein (Homo sapiens, UniProt P05067). As to the kind of experiment: Inhibition of amyloid beta (1 to 42) (unknown origin) self-induced aggregation at 20 uM after 48 hrs by thioflavin T fluorescence assay relative to control.
T1 sequence (P05067 whole entry): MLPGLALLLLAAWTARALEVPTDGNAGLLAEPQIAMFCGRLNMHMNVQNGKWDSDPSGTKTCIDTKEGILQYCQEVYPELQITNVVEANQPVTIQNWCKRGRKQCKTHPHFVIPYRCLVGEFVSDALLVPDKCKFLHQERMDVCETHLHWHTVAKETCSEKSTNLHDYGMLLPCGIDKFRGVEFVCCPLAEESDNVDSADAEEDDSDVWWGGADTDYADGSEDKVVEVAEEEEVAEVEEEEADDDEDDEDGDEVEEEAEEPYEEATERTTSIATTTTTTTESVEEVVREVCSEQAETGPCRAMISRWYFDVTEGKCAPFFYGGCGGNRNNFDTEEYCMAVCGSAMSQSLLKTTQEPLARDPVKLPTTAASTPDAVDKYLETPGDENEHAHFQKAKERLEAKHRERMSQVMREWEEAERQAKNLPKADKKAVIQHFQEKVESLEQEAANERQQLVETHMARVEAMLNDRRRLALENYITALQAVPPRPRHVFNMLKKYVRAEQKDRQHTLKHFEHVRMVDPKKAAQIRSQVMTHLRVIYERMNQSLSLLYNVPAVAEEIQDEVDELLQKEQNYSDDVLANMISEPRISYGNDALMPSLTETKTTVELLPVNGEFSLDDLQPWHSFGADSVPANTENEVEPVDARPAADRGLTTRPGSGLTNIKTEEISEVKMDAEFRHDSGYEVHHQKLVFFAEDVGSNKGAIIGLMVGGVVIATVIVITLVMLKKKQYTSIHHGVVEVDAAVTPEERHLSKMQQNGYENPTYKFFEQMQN
The target in data set [4] is T1, Amyloid-beta precursor protein.
Description: Inhibition of amyloid beta (1 to 42) (unknown origin) self-induced aggregation after 48 hrs by thioflavin T fluorescence assay
In data set [5] the target is Cholinesterase (Equus caballus, UniProt P81908).
Chain of Cholinesterase (P81908 whole entry): as the sequence (P81908 whole entry) above
Description: Inhibition of equine serum BuChE using S-butyrylcholinesterase iodide as substrate preincubated for 6 mins followed by substrate addition by Ellmans method
Data set [6] concerns the target Acetylcholinesterase (Electrophorus electricus, UniProt O42275).
Description: Inhibition of electric eel AChE using acetylthiocholine iodide as substrate preincubated for 6 mins followed by substrate addition by Ellmans method
For data set [7], the target named is Acetylcholinesterase (Electrophorus electricus) (UniProt O42275). The following applies: 7.7 to 30.8 nM.
Chain of Acetylcholinesterase (Electrophorus electricus) (O42275 24-633 limits assumed): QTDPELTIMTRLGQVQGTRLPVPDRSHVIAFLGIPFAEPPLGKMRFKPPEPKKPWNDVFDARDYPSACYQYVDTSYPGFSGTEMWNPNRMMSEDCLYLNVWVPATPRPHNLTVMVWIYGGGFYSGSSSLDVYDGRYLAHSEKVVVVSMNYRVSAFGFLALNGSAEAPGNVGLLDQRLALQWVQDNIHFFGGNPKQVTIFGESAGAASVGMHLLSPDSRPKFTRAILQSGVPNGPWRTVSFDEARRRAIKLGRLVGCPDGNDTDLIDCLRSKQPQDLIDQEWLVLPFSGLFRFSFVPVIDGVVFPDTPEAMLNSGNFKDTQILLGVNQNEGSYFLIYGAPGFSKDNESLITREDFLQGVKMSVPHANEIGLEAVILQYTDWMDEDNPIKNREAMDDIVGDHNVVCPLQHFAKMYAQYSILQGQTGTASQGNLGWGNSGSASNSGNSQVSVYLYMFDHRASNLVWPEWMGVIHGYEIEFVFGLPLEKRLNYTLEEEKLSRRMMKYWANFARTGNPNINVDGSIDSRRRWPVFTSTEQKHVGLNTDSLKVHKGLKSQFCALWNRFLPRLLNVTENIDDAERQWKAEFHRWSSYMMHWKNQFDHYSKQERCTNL
Data set [8] is described as follows: Cytotoxicity against human SH-SY5Y cells assessed as survival at 25 uM after 24 hrs by MTT assay relative to control. The following applies: read-out: Survival. Type of data set: cell-based. A general note: Tetrazolium assays rely on reduction of a dye to a coloured formazan, in cell work by metabolically active cells.
A short description of data set [9]: Cytotoxicity against human SH-SY5Y cells assessed as survival at 50 uM after 24 hrs by MTT assay relative to control. Type of data set: cell-based. As to conditions: read-out: Survival.
Data set [10] is described as follows: Cytotoxicity against human SH-SY5Y cells assessed as survival at 5 uM after 24 hrs by MTT assay relative to control. Type of data set: cell-based. The following applies: read-out: Survival.
Data set [11] in a line: Cytotoxicity against human SH-SY5Y cells assessed as survival at 10 uM after 24 hrs by MTT assay relative to control. The following applies: read-out: Survival. Format: cell-based.
Data set [12] is described as follows: Cytotoxicity against human SH-SY5Y cells assessed as survival at 1 uM after 24 hrs by MTT assay relative to control. Type of data set: cell-based. As to conditions: read-out: Survival.
Data set [13] is described as follows: Metal chelating activity of the compound assessed as Cu2+-complex formation in methanol at 25 uM by UV-vis spectrophotometric analysis. Type of data set: functional.
A short description of data set [14]: Metal chelating activity of the compound assessed as Fe2+-complex formation in methanol at 25 uM by UV-vis spectrophotometric analysis. Format: functional.
For data set [15], the target named is Cholinesterase (Equus caballus) (UniProt P81908). As to the kind of experiment: Potency index, ratio of tacrine IC50 to compound IC50 for equine serum BuChE.
For data set [16] the target is unchanged. As to the kind of experiment: Potency index, ratio of galanthamine IC50 to compound IC50 for equine serum BuChE.
The target of data set [17] is Acetylcholinesterase (Electrophorus electricus) (UniProt O42275). Kind of data set: Potency index, ratio of tacrine IC50 to compound IC50 for electric eel AChE.
Data set [18] shares this target. Kind of data set: Potency index, ratio of galanthamine IC50 to compound IC50 for electric eel AChE.

Chain of Acetylcholinesterase (O42275 whole entry): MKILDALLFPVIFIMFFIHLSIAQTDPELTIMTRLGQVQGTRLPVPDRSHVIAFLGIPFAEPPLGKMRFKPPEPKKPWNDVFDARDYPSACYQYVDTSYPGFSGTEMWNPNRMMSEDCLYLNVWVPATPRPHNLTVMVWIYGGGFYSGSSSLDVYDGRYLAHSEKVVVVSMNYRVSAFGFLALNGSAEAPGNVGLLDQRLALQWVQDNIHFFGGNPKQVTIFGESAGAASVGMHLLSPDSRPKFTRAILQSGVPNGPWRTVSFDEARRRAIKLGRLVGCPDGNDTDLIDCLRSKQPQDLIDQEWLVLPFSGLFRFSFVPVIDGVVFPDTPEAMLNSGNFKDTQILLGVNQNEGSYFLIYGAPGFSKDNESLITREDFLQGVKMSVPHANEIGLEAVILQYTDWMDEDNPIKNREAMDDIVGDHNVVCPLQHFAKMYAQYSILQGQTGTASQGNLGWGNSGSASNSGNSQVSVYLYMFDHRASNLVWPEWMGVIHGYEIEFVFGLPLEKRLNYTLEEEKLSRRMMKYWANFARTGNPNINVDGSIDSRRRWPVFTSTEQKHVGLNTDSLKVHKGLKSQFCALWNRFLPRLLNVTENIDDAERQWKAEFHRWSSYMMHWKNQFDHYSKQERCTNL

In the case of `O=c1ccoc2cc(OCCCN3CCN(CCCNc4c5c(nc6ccccc46)CCCC5)CC3)cc(O)c12`, the Activity in data set [1] was less than 36%. Moreover, the inhibition entry in [2] and in data set [7] was “Active” in each case. Besides, the inhibition in [3] amounted to 85.3%. The IC50 in [4] turned out to be 4800 nM; in data set [5], 45 nM; in [6], 15.4 nM.
For the compound `O=c1cc(-c2ccccc2)oc2cc(OCCCCCN3CCN(CCCNc4c5c(nc6ccccc46)CCCC5)CC3)ccc12`, the Activity in [1] was less than 36%. In addition, the inhibition in data set [3] turned out to be 62.5%. Moreover, the IC50 was 13200 nM in data set [4], 423 nM in [5] and 594 nM in data set [6].
In the case of `O=c1cc(-c2ccc(Cl)cc2)oc2cc(OCCCN3CCN(CCCNc4c5c(nc6ccccc46)CCCC5)CC3)ccc12`, the Activity in [1] is less than 36%. Moreover, the inhibition in data set [3] turned out to be 48.9%. Moreover, the results for the IC50 in data set [5] and in data set [6] were 994 nM and 40.1 nM, respectively.
As for `O=c1cc(-c2ccccc2)oc2cc(OCCN3CCN(CCCNc4c5c(nc6ccccc46)CCCC5)CC3)ccc12`, the Activity in data set [1] is less than 36%. Also, in [3], the inhibition was 70%. Moreover, the IC50 in data set [4] was found to be 9800 nM; in data set [5] it was 266 nM; in data set [6], 416 nM.
On to `O=c1cc(-c2ccccc2)oc2cc(OCCCCN3CCN(CCNc4c5c(nc6ccccc46)CCCC5)CC3)ccc12`, for which, in data set [1], the Activity is less than 36%. The same compound gave an inhibition in [3] of 53.7%. The figures for the IC50 in data set [4], in [5] and in data set [6] were 16400 nM, 197 nM and 268 nM, respectively.
As for `Cc1ccc(-c2cc(=O)c3ccc(OCCCN4CCN(CCCNc5c6c(nc7ccccc57)CCCC6)CC4)cc3o2)cc1`, in [1], the Activity was less than 36%. This compound also registered an inhibition in data set [3] of 13.4%. Further, the IC50 in data set [5] turned out to be 573 nM; in data set [6], 316 nM.
As to `O=c1cc(-c2ccccc2)oc2cc(OCCCCCCN3CCN(CCCNc4c5c(nc6ccccc46)CCCC5)CC3)ccc12`, in data set [1], the Activity is less than 36%. In addition, the inhibition in data set [3] amounted to 63%. In addition, the IC50 in data set [4] stood at 13500 nM; in data set [5], 414 nM; in data set [6] it was 848 nM.
With `O=c1cc(-c2ccccc2)oc2cc(OCCCCN3CCN(CCCNc4c5c(nc6ccccc46)CCCC5)CC3)ccc12`, the Activity in data set [1] is less than 36%. In data set [3], this compound returned an inhibition of 53.4%. The IC50 in [4] worked out at 17300 nM; in data set [5], 317 nM; in data set [6] it was 547 nM.
For `O=c1cc(-c2ccccc2)oc2cc(OCCCN3CCN(CCCNc4c5c(nc6ccccc46)CCCC5)CC3)cc(O)c12`, the Activity in data set [1] is less than 36%. Besides, the viability at 24 h, 25 µM in data set [8] came to 92.7%. Also, in data set [9], the viability at 24 h, 50 µM was 90.1%. Moreover, in data set [10], the viability at 24 h, 5 µM stood at 96.5%. Besides, the viability at 24 h, 10 µM in [11] came out at 94.4%. The viability at 24 h, 1 µM in data set [12] came out at 97.3%. In data set [3], this compound showed an inhibition of 79.1%. The outcome in data set [13] and in [14] was Active. Moreover, the IC50 in [4] is 6500 nM; in data set [5] it was 558 nM; in data set [6] it was 133 nM.
With `COc1ccc(-c2cc(=O)c3ccc(OCCCN4CCN(CCCNc5c6c(nc7ccccc57)CCCC6)CC4)cc3o2)cc1`, the Activity in [1] was less than 36%. Also, the inhibition in [3] was determined as 10.9%. For the same compound, the IC50 worked out at 655 nM in data set [5] and 417 nM in data set [6].
For the compound `O=c1cc(-c2ccccc2)oc2cc(OCCCCCN3CCN(CCNc4c5c(nc6ccccc46)CCCC5)CC3)ccc12`, the Activity in data set [1] was less than 36%. Also, the inhibition in data set [3] was found to be 65.4%. The values for the IC50 in data set [4], in data set [5] and in [6] were 12800 nM, 258 nM and 568 nM, respectively.
For the compound `Nc1ccc(-c2cc(=O)c3ccc(OCCCN4CCN(CCCNc5c6c(nc7ccccc57)CCCC6)CC4)cc3o2)cc1`, the Activity in data set [1] was less than 36%. This compound also registered an inhibition in [3] of 9%. The IC50 was 685 nM in data set [5] and 336 nM in data set [6].
Consider `O=c1ccoc2cc(OCCCN3CCN(CCCNc4c5c(nc6ccccc46)CCCC5)CC3)ccc12`, for which the Activity in data set [1] is less than 36%. In [3], this compound returned an inhibition of 67.4%. Besides, the Ratio IC50 in data set [15] worked out at 2; in data set [16], 508. Further, the IC50 was determined as 11500 nM in [4], 25.8 nM in data set [5] and 10.3 nM in data set [6].
Regarding `COc1cc(OCCCN2CCN(CCCNc3c4c(nc5ccccc35)CCCC4)CC2)cc2oc(-c3ccccc3)cc(=O)c12`, the Activity in data set [1] is less than 36%. For the same compound, the inhibition in data set [3] is 68.7%. The figures for the 50% inhibitory concentration (IC50) in data set [4], in data set [5] and in data set [6] were 9600 nM, 360 nM and 57.7 nM, respectively.
For `O=c1cc(-c2ccc([N+](=O)[O-])cc2)oc2cc(OCCCN3CCN(CCCNc4c5c(nc6ccccc46)CCCC5)CC3)ccc12`, in that order: less than 36%, 61.1%, 14100 nM, 460 nM and 75 nM.
Turning to `CN(C)c1ccc(-c2cc(=O)c3ccc(OCCCN4CCN(CCCNc5c6c(nc7ccccc57)CCCC6)CC4)cc3o2)cc1`, the Activity in data set [1] was less than 36%. This compound had an inhibition in [3] of 12.2%. Also, the IC50 is 845 nM in [5] and 230 nM in data set [6].
Take `O=c1cc(-c2ccccc2)oc2cc(OCCN3CCN(CCNc4c5c(nc6ccccc46)CCCC5)CC3)ccc12`: the Activity in data set [1] is less than 36%. This compound returned an inhibition in data set [3] of 54.1%. For the same compound, the results for the IC50 in [4], in data set [5] and in [6] were 16800 nM, 520 nM and 481 nM, respectively.
Turning to `O=c1cc(-c2ccccc2)oc2cc(OCCCN3CCN(CCNc4c5c(nc6ccccc46)CCCC5)CC3)ccc12`, the Activity in data set [1] is less than 36%. The compound also had an inhibition in data set [3] of 59.1%. Besides, the IC50 in data set [4] was 13700 nM; in data set [5], 311 nM; in data set [6] it was 624 nM.
Turning to `O=c1cc(-c2ccccc2)oc2cc(OCCCN3CCN(CCCNc4c5c(nc6ccccc46)CCCC5)CC3)ccc12`, the Activity in data set [1] was less than 36%. Also, in data set [3], the inhibition is 58%. The figures for the IC50 in data set [4], in data set [5] and in data set [6] were 14900 nM, 208 nM and 153 nM, respectively.
As for `O=c1cc(-c2ccccc2)oc2cc(OCCCCCCN3CCN(CCNc4c5c(nc6ccccc46)CCCC5)CC3)ccc12`, the Activity in data set [1] was less than 36%. In [3], this compound came in with an inhibition of 63.3%. Further, the IC50 came out at 14200 nM in [4], 289 nM in data set [5] and 717 nM in data set [6].
As for `O=c1cc(-c2ccccc2)oc2cc(O)ccc12` [7-HYDROXYFLAVONE], the inhibition in [3] stood at 27.2%. The IC50 is greater than 100000 nM in data set [5] and 85000 nM in [6].
With `COc1cc(OCCCN2CCN(CCCNc3c4c(nc5ccccc35)CCCC4)CC2)cc2occc(=O)c12`, the Activity in data set [1] is less than 36%. The compound further registered an inhibition in [3] of 62%. For the same compound, the Ratio IC50 came out at 31 in data set [17] and 318 in data set [18]. In addition, the 50% inhibitory concentration (IC50) in data set [4] came to 12600 nM; in data set [5] it was 35 nM; in [6], 8.4 nM.

The inhibition is how much of the control response was suppressed. The term IC50 denotes the concentration at which inhibition is half-maximal.
